Organism: Rattus norvegicus
Assay: Open TG-GATES - Regimen: Single
Type: toxicity, organism-based, Sprague-Dawley
Design: regimen Single, gender Male, age 6 weeks
Details: in vivo, po, route gavage; for TC / TP / gamma-GTP / ALP / ALT / AST / BUN / CRE / DBIL / GLC / IP / K / LDH / RALB / TBIL / PL: tissue Plasma; for APTT / Bas / Eos / Fbg / Ht / Lym / MCHC / MCV / Mono / PT / Plat / RBC / Ret / WBC: tissue Blood; for KIDNEY_L / KIDNEY_R / KIDNEY_TOTAL: tissue Kidney; for LIVER: tissue Liver
[1] = 0 mg/kg, 24 h, dose level Control

Structure (SMILES): CN(C)CCCN1c2ccccc2CCc2ccccc21 [IMIPRAMINE]
- TC [1]: 76 mg/dL
- TP [1]: 5.6 g/dL
- gamma-GTP [1]: 1 IU/L
- TERMINAL_BW (10 mg/kg, 3 h, dose level Low): 203.3 g
- APTT (10 mg/kg, 3 h, dose level Low): 16.8 s
- Bas (10 mg/kg, 3 h, dose level Low): 0%
- Eos (10 mg/kg, 3 h, dose level Low): 1.2%
- Fbg (10 mg/kg, 3 h, dose level Low): 264.4 mg/dL
- Ht (10 mg/kg, 3 h, dose level Low): 42.9%
- Lym (10 mg/kg, 3 h, dose level Low): 78.6%
- MCHC (10 mg/kg, 3 h, dose level Low): 31.9%
- MCV (10 mg/kg, 3 h, dose level Low): 66.6 fL
- Mono (10 mg/kg, 3 h, dose level Low): 2.8%
- PT (10 mg/kg, 3 h, dose level Low): 16 s
- Plat (10 mg/kg, 3 h, dose level Low): 108.8 x10_4/uL
- RBC (10 mg/kg, 3 h, dose level Low): 644 x10_4/ul
- Ret (10 mg/kg, 3 h, dose level Low): 8.6%
- WBC (10 mg/kg, 3 h, dose level Low): 74.5 x10_2/uL
- KIDNEY_L (10 mg/kg, 3 h, dose level Low): 0.9 g
- KIDNEY_R (10 mg/kg, 3 h, dose level Low): 0.9 g
- KIDNEY_TOTAL (10 mg/kg, 3 h, dose level Low): 1.8 g
- LIVER (10 mg/kg, 3 h, dose level Low): 9.1 g
- ALP (10 mg/kg, 3 h, dose level Low): 1700 IU/L
- ALT (10 mg/kg, 3 h, dose level Low): 46.6 IU/L
- AST (10 mg/kg, 3 h, dose level Low): 76.8 IU/L
- BUN (10 mg/kg, 3 h, dose level Low): 8.6 mg/dL
- CRE (10 mg/kg, 3 h, dose level Low): 0.1 mg/dL
- DBIL (10 mg/kg, 3 h, dose level Low): 0.01 mg/dL
- GLC (10 mg/kg, 3 h, dose level Low): 187.4 mg/dL
- IP (10 mg/kg, 3 h, dose level Low): 10 mg/dL
- K (10 mg/kg, 3 h, dose level Low): 4.3 meq/L
- LDH (10 mg/kg, 3 h, dose level Low): 73 IU/L
- RALB (10 mg/kg, 3 h, dose level Low): 2.6 g/dL
- TBIL (10 mg/kg, 3 h, dose level Low): 0.066 mg/dL
- TC (10 mg/kg, 3 h, dose level Low): 80.4 mg/dL
- TP (10 mg/kg, 3 h, dose level Low): 5.5 g/dL
- gamma-GTP (10 mg/kg, 3 h, dose level Low): 1.2 IU/L
- TERMINAL_BW (10 mg/kg, 6 h, dose level Low): 199.7 g
- APTT (10 mg/kg, 6 h, dose level Low): 16 s
- Bas (10 mg/kg, 6 h, dose level Low): 0.2%
- Eos (10 mg/kg, 6 h, dose level Low): 0.8%
- Fbg (10 mg/kg, 6 h, dose level Low): 276.2 mg/dL
- Ht (10 mg/kg, 6 h, dose level Low): 42.9%
- Lym (10 mg/kg, 6 h, dose level Low): 75%
- MCHC (10 mg/kg, 6 h, dose level Low): 32.3%
- MCV (10 mg/kg, 6 h, dose level Low): 66.5 fL
- Mono (10 mg/kg, 6 h, dose level Low): 2.2%
- PT (10 mg/kg, 6 h, dose level Low): 15.8 s
- Plat (10 mg/kg, 6 h, dose level Low): 108.4 x10_4/uL
- RBC (10 mg/kg, 6 h, dose level Low): 645.6 x10_4/ul
- Ret (10 mg/kg, 6 h, dose level Low): 8.3%
- WBC (10 mg/kg, 6 h, dose level Low): 92.4 x10_2/uL
- KIDNEY_L (10 mg/kg, 6 h, dose level Low): 0.9 g
- KIDNEY_R (10 mg/kg, 6 h, dose level Low): 0.9 g
- KIDNEY_TOTAL (10 mg/kg, 6 h, dose level Low): 1.9 g
- ALP (10 mg/kg, 6 h, dose level Low): 1517 IU/L
- ALT (10 mg/kg, 6 h, dose level Low): 54.4 IU/L
- AST (10 mg/kg, 6 h, dose level Low): 79.4 IU/L
- BUN (10 mg/kg, 6 h, dose level Low): 8.2 mg/dL
- CRE (10 mg/kg, 6 h, dose level Low): 0.2 mg/dL
- GLC (10 mg/kg, 6 h, dose level Low): 183 mg/dL
- IP (10 mg/kg, 6 h, dose level Low): 9.6 mg/dL
- K (10 mg/kg, 6 h, dose level Low): 4.2 meq/L
- LDH (10 mg/kg, 6 h, dose level Low): 139.2 IU/L
- PL (10 mg/kg, 6 h, dose level Low): 137.6 mg/dL
- RALB (10 mg/kg, 6 h, dose level Low): 2.5 g/dL
- TBIL (10 mg/kg, 6 h, dose level Low): 0.064 mg/dL
- TC (10 mg/kg, 6 h, dose level Low): 74.8 mg/dL
- TP (10 mg/kg, 6 h, dose level Low): 5.3 g/dL
- gamma-GTP (10 mg/kg, 6 h, dose level Low): 1 IU/L
- TERMINAL_BW (10 mg/kg, 9 h, dose level Low): 198.9 g
- APTT (10 mg/kg, 9 h, dose level Low): 16.4 s
- Bas (10 mg/kg, 9 h, dose level Low): 0.2%
- Eos (10 mg/kg, 9 h, dose level Low): 1%
- Fbg (10 mg/kg, 9 h, dose level Low): 294.4 mg/dL
- Ht (10 mg/kg, 9 h, dose level Low): 42.3%
- Lym (10 mg/kg, 9 h, dose level Low): 75.6%
- MCHC (10 mg/kg, 9 h, dose level Low): 32.5%
- MCV (10 mg/kg, 9 h, dose level Low): 64.4 fL
- Mono (10 mg/kg, 9 h, dose level Low): 2.2%
- PT (10 mg/kg, 9 h, dose level Low): 15.9 s
- Plat (10 mg/kg, 9 h, dose level Low): 114.9 x10_4/uL
- RBC (10 mg/kg, 9 h, dose level Low): 658 x10_4/ul
- Ret (10 mg/kg, 9 h, dose level Low): 7.7%
- WBC (10 mg/kg, 9 h, dose level Low): 71.4 x10_2/uL
- KIDNEY_L (10 mg/kg, 9 h, dose level Low): 0.9 g
- KIDNEY_R (10 mg/kg, 9 h, dose level Low): 0.9 g
- KIDNEY_TOTAL (10 mg/kg, 9 h, dose level Low): 1.8 g
- LIVER (10 mg/kg, 9 h, dose level Low): 8.2 g
- ALP (10 mg/kg, 9 h, dose level Low): 1463.6 IU/L
- ALT (10 mg/kg, 9 h, dose level Low): 37.6 IU/L
- AST (10 mg/kg, 9 h, dose level Low): 66.2 IU/L
- BUN (10 mg/kg, 9 h, dose level Low): 7.4 mg/dL
- CRE (10 mg/kg, 9 h, dose level Low): 0.1 mg/dL
- DBIL (10 mg/kg, 9 h, dose level Low): 0.01 mg/dL
- GLC (10 mg/kg, 9 h, dose level Low): 181 mg/dL
- IP (10 mg/kg, 9 h, dose level Low): 9.9 mg/dL
- K (10 mg/kg, 9 h, dose level Low): 4.1 meq/L
- LDH (10 mg/kg, 9 h, dose level Low): 67.6 IU/L
- PL (10 mg/kg, 9 h, dose level Low): 137.4 mg/dL
- RALB (10 mg/kg, 9 h, dose level Low): 2.6 g/dL
- TBIL (10 mg/kg, 9 h, dose level Low): 0.066 mg/dL
- TC (10 mg/kg, 9 h, dose level Low): 78.4 mg/dL
- TP (10 mg/kg, 9 h, dose level Low): 5.5 g/dL
- gamma-GTP (10 mg/kg, 9 h, dose level Low): 1.2 IU/L
- TERMINAL_BW (10 mg/kg, 24 h, dose level Low): 217.3 g
- APTT (10 mg/kg, 24 h, dose level Low): 16.2 s
- Bas (10 mg/kg, 24 h, dose level Low): 0%
- Eos (10 mg/kg, 24 h, dose level Low): 0.4%
- Fbg (10 mg/kg, 24 h, dose level Low): 254 mg/dL
- Ht (10 mg/kg, 24 h, dose level Low): 40.6%
- Lym (10 mg/kg, 24 h, dose level Low): 81%
- MCHC (10 mg/kg, 24 h, dose level Low): 32.3%
- MCV (10 mg/kg, 24 h, dose level Low): 65.1 fL
- Mono (10 mg/kg, 24 h, dose level Low): 2.4%
- PT (10 mg/kg, 24 h, dose level Low): 16.2 s
- Plat (10 mg/kg, 24 h, dose level Low): 104.4 x10_4/uL
- RBC (10 mg/kg, 24 h, dose level Low): 625.4 x10_4/ul
- Ret (10 mg/kg, 24 h, dose level Low): 7.4%
- WBC (10 mg/kg, 24 h, dose level Low): 76.3 x10_2/uL
- KIDNEY_L (10 mg/kg, 24 h, dose level Low): 0.9 g
- KIDNEY_R (10 mg/kg, 24 h, dose level Low): 0.9 g
- KIDNEY_TOTAL (10 mg/kg, 24 h, dose level Low): 1.8 g
- LIVER (10 mg/kg, 24 h, dose level Low): 9.7 g
- ALP (10 mg/kg, 24 h, dose level Low): 1443 IU/L
- ALT (10 mg/kg, 24 h, dose level Low): 48.6 IU/L
- AST (10 mg/kg, 24 h, dose level Low): 80.8 IU/L
- BUN (10 mg/kg, 24 h, dose level Low): 15.6 mg/dL
- CRE (10 mg/kg, 24 h, dose level Low): 0.2 mg/dL
- GLC (10 mg/kg, 24 h, dose level Low): 187.2 mg/dL
- IP (10 mg/kg, 24 h, dose level Low): 7.6 mg/dL
- K (10 mg/kg, 24 h, dose level Low): 4 meq/L
- LDH (10 mg/kg, 24 h, dose level Low): 73.2 IU/L
- RALB (10 mg/kg, 24 h, dose level Low): 2.5 g/dL
- TBIL (10 mg/kg, 24 h, dose level Low): 0.058 mg/dL
- TC (10 mg/kg, 24 h, dose level Low): 78 mg/dL

— ChEMBL document CHEMBL3885861, “Open TG-GATES”
